21 molecules from patent US6998233B2, “Methods for ligand discovery” (Sunesis Pharmaceuticals, Inc., priority 1998, dated 2006) can be followed below.

The structures appear in SMILES notation. Like-named read-outs stand apart in the source and are kept apart here.

The target in data set [1] is E. coli TS (Escherichia coli, UniProt P0A884). Description: Thymidylate synthase inhibition, enzymatic assay (Michaelis-Menten kinetics) on tether-free analogs. The format is biochemical. The source says:
TS is an ideal validating target for several reasons. […] Second, a simple colorimetric assay exists for determining whether a potential ligand binds to TS. This assay depends on the rate of conversion of 5,10-CH2—H4folate to H2folate in the presence of dUMP. A second assay for binding is also spectrophotometric and relies on competition with pyridoxal-5′-phosphate (“PLP”), which forms a complex with TS with a unique spectral signature.
The TS chosen for the purposes of illustration is the E. coli TS. […] The E. coli TS includes four other cysteines but these are not conserved among other TS enzymes and are buried and thus not accessible. However, if one or more of these cysteines were reactive toward disulfides, then mutant versions of these enzymes can be used where these cysteines are mutated to another amino acid such as alanine.
In one illustrative example, the tethering experiment is performed in the presence of a known substrate. […] In contrast, a ligand candidate that lacks an inherent binding affinity or cysteamine would be easily displaced by the substrate. Another illustrative example is traditional enzymatic assays on the tether-free analog. For example, the affinity of the [drawing 14] R^c portion of the ligand fragment was determined using Michaelis-Mention kinetics.
The inhibition constants of the untethered versions of the selected ligand candidates were determined.

Data set [2] addresses T1, target-extender complex 14′ (caspase-3 modified with extender 14) (Homo sapiens, UniProt P42574).
T1 construct: made in house
T1 sequence (P42574 29-175): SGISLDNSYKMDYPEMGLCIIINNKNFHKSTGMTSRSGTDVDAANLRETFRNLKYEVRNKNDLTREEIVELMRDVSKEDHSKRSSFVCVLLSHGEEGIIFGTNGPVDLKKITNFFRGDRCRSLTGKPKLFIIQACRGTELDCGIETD
T1 sequence (P42574 176-277): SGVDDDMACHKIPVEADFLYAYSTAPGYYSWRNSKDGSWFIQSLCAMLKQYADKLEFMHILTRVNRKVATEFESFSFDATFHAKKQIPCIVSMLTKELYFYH
In words: Tethering with extender, target-extender complex 14′. Format: binding. As to conditions: library of about 10,000 ligand candidates. From the text: (§1) Target-extender complexes 13′ and 14′ were each used in the tethering method against a library of about 10,000 ligand candidates. An illustrative example of a selected ligand-candidate using target-extender complex 13′ is [drawing 39]

The target in data set [3] is T2, target-extender complex 13′ (caspase-3 modified with extender 13) (Homo sapiens, UniProt P42574).
T2 construct: made in house
T2 sequence (P42574 29-175): T1 sequence (P42574 29-175)
T2 sequence (P42574 176-277): T1 sequence (P42574 176-277)
In words: Tethering with extender, target-extender complex 13′. The format is binding. As to conditions: library of about 10,000 ligand candidates.
From the text: as §1
(§2) This example describes the modification of caspase-3 with extender 13. Caspase-3 was cloned, overexpressed, and purified using standard techniques. […] The protein was concentrated in a Ultrafree 5 MWCO unit and the buffer exchanged to 0.1 M TES pH 7.5 using a Nap-5 column.

In data set [4] the target is T3, caspase-3 (Homo sapiens, UniProt P42574).
T3 sequence (P42574 29-175 limits assumed): T1 sequence (P42574 29-175)
T3 sequence (P42574 176-277 limits assumed): T1 sequence (P42574 176-277)
In words: Caspase-3 inhibition (Ki). The format is biochemical. Particulars: for change of binding affinity relative to compound 18: removal of hydroxyl group / hydroxyl and acid moiety.

The format of data set [5] is physicochemical. As to the method:
The thiirane (17 mg, 0.047 mmol) was dissolved in dry DCM (5 ml), chilled in an ice-water bath, and treated with 5 ml trifluoroacetic acid. The reaction was allowed to proceed on ice for 40 minutes at which point it was evaporated to dryness and purified using reverse phase HPLC to yield compound 40 as a white solid (1.8 mg, 0.0058 mmol, 13%, ES (+) MS m/z=332 (M+Na)). […] It is generally preferred that the conjugation reaction of this extender to the active site thiol of caspases is performed for only 2–5 minutes at pH 6 and at low stoichiometries with respect to enzyme (1–3 equivalents)

Data set [6] concerns the target T3, caspase-3. Description: Modification of caspase-3 with extender (mass-spectroscopy). The format is binding. As to conditions: ambient temperature, 3.5 hours.
From the text: as §2

Where [7] appears, read: Table 2, glutamate-grafted N-tosyl-proline derivatives.
Setting [8] is: untethered versions of selected ligand candidates, Example 6.

Chain of E. coli TS (P0A884 whole entry): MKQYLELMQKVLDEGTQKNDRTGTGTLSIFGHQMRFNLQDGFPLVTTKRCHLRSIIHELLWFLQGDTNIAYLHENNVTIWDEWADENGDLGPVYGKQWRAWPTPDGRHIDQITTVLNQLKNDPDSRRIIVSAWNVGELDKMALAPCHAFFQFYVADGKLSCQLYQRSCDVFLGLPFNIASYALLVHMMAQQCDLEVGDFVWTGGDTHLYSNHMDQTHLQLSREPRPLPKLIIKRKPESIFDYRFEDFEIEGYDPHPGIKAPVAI

In general, Ki refers to a measure of affinity in units of concentration, obtained from inhibition or displacement. The low end stands for a stronger hold on the target, the high end for a looser hold on the target. In data set [1] (setting [7]), `O=C(O)CCCCC[C@H](NC(=O)c1ccc(S(=O)(=O)N2CCCC2C(=O)O)cc1)C(=O)O` (stereo partly shown) [compound 9] yielded a Ki of 14 ± 6 µM.
With `NCCSSCCNS(=O)(=O)c1ccc(O)c(C(=O)O)c1` [ligand candidate 15], the selection in tethering result in data set [2] is on record as “not selected”; in data set [3], “selected”.
Regarding `CC(=O)N[C@@H](CCC(=O)O)C(=O)N[C@H](C(=O)N[C@H](C=O)CC(=O)O)C(C)C` [compound I, reference compound], the Ki in data set [4] stood at 0.051 µM.
On to `NCCSSCCNS(=O)(=O)c1cccc(C(=O)O)c1` [ligand candidate 17], for which the selection in tethering entry in data set [2] and in data set [3] was “not selected” in each case.
Turning to `NC(=O)[C@H](CCC(=O)O)NC(=O)c1ccc(S(=O)(=O)N2CCCC2C(=O)O)cc1` (stereo partly shown) [compound 10], in data set [1] (setting [7]), the Ki is 378 ± 69 µM.
In turn, `O=C(O)CCCC[C@H](NC(=O)c1ccc(S(=O)(=O)N2CCCC2C(=O)O)cc1)C(=O)O` (stereo partly shown) [compound 8] returned a Ki in data set [1] (setting [7]) of 32 ± 2 µM. This Ki is about 12-fold lower than that of the molecule before.
For `O=C(O)COc1ccc(/C=N\OCCCCCCO/N=C/c2ccc(S(=O)(=O)N3CCCC3C(=O)O)cc2)cc1` (stereo not shown) [compound 3], the Ki in data set [1] (setting [8]) is about 40 µM.
`NC(=O)CC[C@H](NC(=O)c1ccc(S(=O)(=O)N2CCCC2C(=O)O)cc1)C(=O)O` (stereo partly shown) [compound 11]: the Ki in data set [1] (setting [7]) amounted to 61 ± 14 µM.
In data set [1] (setting [7]), `O=C(O)C[C@H](NC(=O)c1ccc(S(=O)(=O)N2CCCC2C(=O)O)cc1)C(=O)O` (stereo partly shown) [compound 6] registered a Ki of 242 ± 3 µM.
With `O=C[C@H](CC(=O)O)NC(=O)CCCCCNS(=O)(=O)c1cccc(C(=O)O)c1` [compound 19], in data set [4] (Table 4), the Ki amounted to 15.3 µM. Besides, the “change of binding affinity relative to compound 18” value in data set [4] is listed as “reduced the affinity by a factor of five”.
In turn, `O=C(O)CCCNC(=O)c1ccc(S(=O)(=O)N2CCCC2C(=O)O)cc1` (stereo not shown) [compound 12] returned a Ki in data set [1] (setting [7]) of 246 ± 46 µM.
As to `CC(C)[C@H](NC(=O)[C@H](CCC(=O)O)NS(=O)(=O)c1ccc(O)c(C(=O)O)c1)C(=O)N[C@H](C=O)CC(=O)O` [compound II], the “decrease in binding affinity versus compound I” value in data set [4] (addition of salicylate sulfonamide moiety to compound I) is about 300 fold.
For the molecule `O=C(O)C[C@H](NC(=O)OCc1ccccc1)C(=O)C1CS1` (stereo partly shown) [compound 40], in data set [5], the “stability as solution in methanol” value was “stable for months” and the “stability in DMSO” value is “not stable”.
`O=C[C@H](CC(=O)O)NC(=O)c1ccc(CNS(=O)(=O)c2ccc(O)c(C(=O)O)c2)cc1` [compound 21]: in data set [4], the Ki was about 0.16 µM and the “Ki better than compound 18” value is on record as “more than 10 fold”. The molecule also came in with a Ki in data set [4] (Table 4) of 0.16 µM. In addition, in data set [4] (versus salicylate sulfonamide-less fragment), the “improvement of binding by addition of the salicylate sulfonamide” value is “about 200 fold”.
In data set [4] (Table 4), `O=C[C@H](CC(=O)O)NC(=O)CCCCCNS(=O)(=O)c1ccccc1` [compound 20] came in with a Ki of over 100 µM. Besides, in data set [4], the “change of binding affinity relative to compound 18” value is given as “ablated binding affinity entirely”.
Consider `O=C(O)COc1ccc(/C=N/OCCCO/N=C/c2ccc(S(=O)(=O)N3CCCC3C(=O)O)cc2)cc1` (stereo not shown) [compound 2], for which the Ki in data set [1] (setting [8]) was about 55 µM.
Take `CC(=O)SCC(=O)N[C@@H](CC(=O)O)C(=O)COC(=O)c1c(Cl)cccc1Cl` [compound 13, 2,6-Dichloro-benzoic acid 3-(2-acetylsulfanyl-acetylamino)-4-carboxy-2-oxo-butyl ester]: the “modification of caspase 3 large subunit” value in data set [6] is listed as “complete modification”.
For `CS(=O)(=O)c1ccc(C(=O)NCCCS(=O)(=O)Cc2cccc(S(=O)(=O)N[C@H](C=O)CC(=O)O)c2)s1` [compound 22], affinity in data set [4] was put at a Ki of 0.33 µM.
Consider `Cc1ccc(S(=O)(=O)N2CCC[C@@H]2C(=O)O)cc1` [compound 1, N-tosyl-D-proline], for which, in data set [1] (competed with the natural substrate dUMP), the mode of inhibition entry is “weak but competitive inhibitor”. The molecule further registered an inhibition constant (Ki) in data set [1] (free acid, Michaelis-Menten kinetics) of 1100 ± 250 µM.
In turn, `O=C(O)CCC[C@H](NC(=O)c1ccc(S(=O)(=O)N2CCCC2C(=O)O)cc1)C(=O)O` (stereo partly shown) [compound 7] registered a Ki in data set [1] (setting [7]) of 23 ± 6 µM.
In the case of `CS(=O)(=O)c1ccc(C(=O)NCCSSCCN)s1` [ligand candidate 16], the selection in tethering entry is given as “selected” in data set [2] and “not selected” in data set [3].
